In ChEMBL document CHEMBL1157233, “5,6:8,9-diepoxy and other cytotoxic sterols from the marine sponge Homaxinella sp” (2006) one finds EC50 data, which are given here for 14 compounds.

Values after ≈ are worked out from the molar mass of the structure shown. Some results are limits rather than exact numbers.

Assay type in all cases: functional
Conditions in all cases: read-out: ED50 (the source's name)

One experiment deals with HCT-15. The experiment is described as follows: Cytotoxicity against human HCT15 cells.
The test system of a further experiment is XF498. The experiment is described as follows: Cytotoxicity against human XF498 cells.
For a further experiment, the system named is A549. The experiment is described as follows: Cytotoxicity against human A549 cells.
For another experiment, the system named is SK-MEL-2. The experiment is described as follows: Cytotoxicity against human SK-MEL-2 cells.
A further experiment has as its system SK-OV-3. Put plainly: Cytotoxicity against human SKOV3 cells.

As for `CC[C@@H](/C=C/[C@@H](C)[C@H]1CC[C@H]2C3=C[C@@H](OC)[C@@]4(O)C[C@@H](O)CC[C@]4(C)[C@H]3CC[C@]12C)C(C)C`, the EC50 was found to be 4.9 µg/mL (≈ 10.7 µM) with HCT-15; 3.8 µg/mL (≈ 8.28 µM) in the experiment with XF498; 4.4 µg/mL (≈ 9.59 µM) with A549; 5.2 µg/mL (≈ 11.3 µM) with SK-MEL-2; 7 µg/mL (≈ 15.3 µM) in the experiment on SK-OV-3.
Turning to `CC(C)[C@H](C)/C=C/[C@@H](C)[C@H]1CC[C@H]2C3=C[C@@H](O)[C@@]4(O)C[C@@H](O)CC[C@]4(C)[C@H]3CC[C@]12C`, the EC50 in the experiment on HCT-15, in the experiment with XF498, with A549, with SK-MEL-2 and in the experiment on SK-OV-3 was more than 5 µg/mL throughout.
Turning to `CO[C@@H]1C=C2[C@@H]3CC[C@H]([C@H](C)/C=C/CC(C)C)[C@@]3(C)CC[C@@H]2[C@@]2(C)CC[C@H](O)C[C@]12O`, the EC50 in the experiment on HCT-15 was found to be 4.2 µg/mL (≈ 9.75 µM); in the experiment on XF498, 4 µg/mL (≈ 9.29 µM); with A549, 4.8 µg/mL (≈ 11.1 µM); in the experiment with SK-MEL-2 it was 3.4 µg/mL (≈ 7.89 µM); with SK-OV-3 it was 7.1 µg/mL (≈ 16.5 µM).
For `CC[C@@H](/C=C/[C@@H](C)[C@H]1CC[C@H]2C3=C[C@@H](O)[C@@]4(O)C[C@@H](O)CC[C@]4(C)[C@@]3(O)CC[C@]12C)C(C)C`, the EC50 in the experiment with HCT-15, in the experiment on XF498, with A549, in the experiment on SK-MEL-2 and with SK-OV-3 was more than 5 µg/mL each time.
For `CC(C)C/C=C/[C@@H](C)[C@H]1CC[C@H]2C3=C[C@@H](O)[C@@]4(O)C[C@@H](O)CC[C@]4(C)[C@H]3CC[C@]12C`, the EC50 in the experiment with HCT-15, with XF498, in the experiment on A549, with SK-MEL-2 and with SK-OV-3 was more than 5 µg/mL in each case.
On to `CC(C)C(C)/C=C/[C@@H](C)[C@H]1CC[C@@H]2[C@]1(C)CC[C@@]13O[C@@]21[C@H](O)[C@@H]1O[C@@]12C[C@@H](O)CC[C@]32C` (stereo not given in full), for which the EC50 was 4.8 µg/mL (≈ 10.8 µM) with HCT-15; 3.4 µg/mL (≈ 7.65 µM) with XF498; 7.1 µg/mL (≈ 16 µM) with A549; 2.7 µg/mL (≈ 6.07 µM) with SK-MEL-2; 6.3 µg/mL (≈ 14.2 µM) with SK-OV-3.
In the same order, the values of `CC(C)C/C=C/[C@@H](C)[C@H]1CC[C@H]2C3=C[C@@H](O)[C@@]4(O)C[C@@H](O)CC[C@]4(C)[C@@]3(O)CC[C@]12C` are more than 5 µg/mL, more than 5 µg/mL, more than 5 µg/mL, more than 5 µg/mL and more than 5 µg/mL.
In the same order, the values of `CC[C@@H](/C=C/[C@@H](C)[C@H]1CC[C@H]2C3=C[C@@H](O)[C@@]4(O)C[C@@H](O)CC[C@]4(C)[C@H]3CC[C@]12C)C(C)C` are more than 5 µg/mL, more than 5 µg/mL, more than 5 µg/mL, more than 5 µg/mL and more than 5 µg/mL.
In the same order, the values of `CC[C@@H](/C=C/[C@@H](C)[C@H]1CC[C@@H]2[C@]1(C)CC[C@@]13O[C@@]21[C@H](O)[C@@H]1O[C@@]12C[C@@H](O)CC[C@]32C)C(C)C` (relative stereo) [HOMAXISTEROL B2] are 1.1 µg/mL (≈ 2.4 µM), 1 µg/mL (≈ 2.18 µM), 1.4 µg/mL (≈ 3.05 µM), 1.1 µg/mL (≈ 2.4 µM) and 1.3 µg/mL (≈ 2.83 µM).
As to `COc1cccc2c1C(=O)c1c(O)c3c(c(O)c1C2=O)C[C@@](O)(C(=O)CO)C[C@@H]3O[C@H]1C[C@H](N)[C@H](O)[C@H](C)O1` (stereo in doubt) [DOXORUBICIN], the EC50 worked out at 0.05 µg/mL (≈ 0.092 µM) in the experiment with HCT-15; 0.01 µg/mL (≈ 0.0184 µM) in the experiment on XF498; 0.01 µg/mL (≈ 0.0184 µM) with A549; 0.01 µg/mL (≈ 0.0184 µM) with SK-MEL-2; 0.03 µg/mL (≈ 0.0552 µM) with SK-OV-3.
For the compound `CC(C)[C@@H](C)/C=C/[C@@H](C)[C@H]1CC[C@H]2C3=C[C@@H](O)[C@@]4(O)C[C@@H](O)CC[C@]4(C)[C@H]3CC[C@]12C` [CEREVISTEROL], the EC50 turned out to be 3 µg/mL (≈ 6.97 µM) with HCT-15; 3.3 µg/mL (≈ 7.66 µM) in the experiment with XF498; 3.9 µg/mL (≈ 9.06 µM) in the experiment with A549; 2.8 µg/mL (≈ 6.5 µM) in the experiment with SK-MEL-2; 6 µg/mL (≈ 13.9 µM) with SK-OV-3.
In the case of `CC(C)C/C=C/[C@@H](C)[C@H]1CC[C@@H]2[C@]1(C)CC[C@@]13O[C@@]21[C@H](O)[C@@H]1O[C@@]12C[C@@H](O)CC[C@]32C` [HOMAXISTEROL B1], the EC50 in the experiment with HCT-15 came to 3.2 µg/mL (≈ 7.43 µM); with XF498, 3.4 µg/mL (≈ 7.9 µM); with A549, 3.9 µg/mL (≈ 9.06 µM); with SK-MEL-2, 3.1 µg/mL (≈ 7.2 µM); in the experiment on SK-OV-3, 3.5 µg/mL (≈ 8.13 µM).
The like results for `CC(C)C/C=C/[C@@H](C)[C@H]1CC[C@H]2C3=CC(=O)[C@@]4(O)C[C@@H](O)CC[C@]4(C)[C@@]3(O)CC[C@]12C` [HOMAXISTEROL C1] were, in that order, 3.7 µg/mL (≈ 8.59 µM), 3.7 µg/mL (≈ 8.59 µM), 5 µg/mL (≈ 11.6 µM), 3.9 µg/mL (≈ 9.06 µM) and 7 µg/mL (≈ 16.3 µM).
Turning to `CC(C)C/C=C/[C@@H](C)[C@H]1CC[C@H]2C3=C[C@H](O)[C@@]4(O)C[C@@H](O)CC[C@]4(C)[C@H]3CC[C@]12C` [HOMAXISTEROL D1], the EC50 in the experiment on HCT-15 stood at 3.1 µg/mL (≈ 7.44 µM); with XF498 it was 3.1 µg/mL (≈ 7.44 µM); in the experiment on A549 it was 3.5 µg/mL (≈ 8.4 µM); in the experiment on SK-MEL-2, 3.1 µg/mL (≈ 7.44 µM); in the experiment on SK-OV-3, 3.9 µg/mL (≈ 9.36 µM).
